Data: patent US20210130473A1, “TGFßR1 INHIBITOR-ASGR ANTIBODY CONJUGATES AND USES THEREOF” (Silverback Therapeutics, Inc., priority 2019, published 2021)

Key:
[1] = target: T1, ALK5 (Homo sapiens, UniProt P36897); experiment: ALK5 enzyme inhibition assay (casein substrate, 10 uM ATP, 33P-ATP, filter-binding; Reaction Biology Corp); type: biochemical; conditions: Table 11
T1 construct: purchased Reaction Biology Corp (Malvern, Pa.)
T1 sequence (P36897 34-503): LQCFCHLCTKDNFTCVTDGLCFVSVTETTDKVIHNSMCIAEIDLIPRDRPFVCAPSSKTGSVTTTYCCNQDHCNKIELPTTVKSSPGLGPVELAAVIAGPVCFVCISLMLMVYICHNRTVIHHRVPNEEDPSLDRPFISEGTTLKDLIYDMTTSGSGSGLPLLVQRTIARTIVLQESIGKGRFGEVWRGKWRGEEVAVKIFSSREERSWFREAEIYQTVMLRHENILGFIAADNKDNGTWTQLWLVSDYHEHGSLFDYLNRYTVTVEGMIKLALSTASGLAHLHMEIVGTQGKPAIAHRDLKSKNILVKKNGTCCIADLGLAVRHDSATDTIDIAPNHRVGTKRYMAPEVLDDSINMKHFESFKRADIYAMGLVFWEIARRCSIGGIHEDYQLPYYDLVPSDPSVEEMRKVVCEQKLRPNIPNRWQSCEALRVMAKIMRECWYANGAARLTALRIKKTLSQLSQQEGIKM
Description: ALK5 enzyme inhibition assays were performed by Reaction Biology Corp (Malvern, Pa.). 1 mg/mL of peptide substrate (casein) and 10 uM ATP were prepared in a mixture of fresh reaction buffer. The kinase was delivered into the substrate solution which was gently mixed. Compounds in 100% DMSO were added to the kinase reaction mixture by Acoustic technology (Echo550; nanoliter range) and the mixture was incubated for 20 min at room temperature. ^33P-ATP (Specific activity 10 uCi/uL) was added into the reaction mixture to initiate the reaction and the reaction mixture was incubated for 2 hours at room temperature. Radioactivity was detected by filter-binding method and kinase activity data were expressed as the percent remaining kinase activity in test samples compared to vehicle (dimethyl sulfoxide) reactions. IC50 values and curve fits were obtained using Prism (GraphPad Software).

[2] = system: TGFβ/SMAD Signaling Pathway SBE reporter cell line; experiment: TGFb reporter assay in HEK293 SBE-LUC reporter cells (luciferase); type: cell-based; conditions: Homo sapiens, key of the table says IC50, read-out: EC50 (the source's name)
Description: TGFβ/SMAD Signaling Pathway SBE reporter cell line was obtained from BPS Bioscience. Cells are passed, expanded, and stored in liquid nitrogen as per the supplier's instructions with the exception that growth media is changed to DMEM-C with Geneticin (DMEM supplemented with 10% fetal bovine serum, 1×NEAA, 1 mM Pyruvate, 2 mM glutamine, 50 μg/mL penicillin, 50 U/mL streptomycin and 400 μg/mL of Geneticin). The assay media is MEM supplemented with 0.5% fetal bovine serum, 1×NEAA, 1 mM Pyruvate, 50 μg/mL penicillin and 50 U/mL streptomycin.
Compounds are assayed to measure their activity as ALK5 inhibitors.
The HEK293 SBE-LUC reporter cells from Example 15 were grown in DMEM-C with Geneticin (DMEM supplemented with […], 1×NEAA, 1 mM Pyruvate, 2 mM glutamine, 50 μg/mL penicillin, 50 U/mL streptomycin and 400 ug/mL of Geneticin). The assay media was MEM supplemented with 0.5% fetal bovine serum, 1×NEAA, 1 mM Pyruvate, 50 μg/mL penicillin and 50 U/mL streptomycin.
The HEK293 SBE-LUC reporter cells were harvested from the tissue culture flasks by incubation in small quantity of Versene at room temperature for three to five minutes after the media in the flask is removed and cells rinsed with PBS. Cells were counted and diluted in the assay media at ˜0.8×10^6 cells/mL then 50 uL/well were added to 96-well assay plate. Test samples (at desired concentrations diluted in assay media) were added to assay plate containing the 50 uL/well of cells (or media only), 50 uL per well, and incubated for 5-6 hours at 37° C. in a 5% CO2 humidified incubator. After that time, 15 uL of TGFb diluted to 12.5 ng/mL in the assay media was added to the plate. Controls included TGFb titration (from 25 to 0 ng/mL) without inhibitors, and media only (without cells, inhibitor or TGFb). Plates were incubated at 37° C. in a 5% CO2 humidified incubator for 18h. Luciferase substrate solution was subsequently added at 75 uL per well, incubated in dark with shaking at room temperature for 10 min, and luminescence was measured using a luminometer.

[3] = system: HEK293 SBE-LUC reporter cells transfected to stably express full length human ASGR1; experiment: Cell reporter assay of anti-ASGR1-ALK5 inhibitor conjugates: TGFβ1-mediated luciferase expression; type: cell-based; conditions: inhibition of TGFβ1-mediated luciferase expression, 6 h preincubation, human TGFβ1 1.6 ng/ml, further 18 h
Description: Anti-ASGR1 antibodies conjugated to an ALK5 inhibitor were tested via a cell reporter assay. Briefly, HEK293 SBE-LUC reporter cells transfected to stably express full length human ASGR1 were seeded in 96 well plates at 40,000 cells/well in an assay media of minimum essential media containing 0.5% fetal bovine serum, 1% nonessential amino acids, 1% sodium pyruvate and 1% Pen/Strep. Anti-ASGR1-ALK5 inhibitor conjugates and controls were added to wells in a dose titration ranging from 5 μM to 0.064 nM to HEK293 SBE-LUC and ASGR1-HEK293 SBE-LUC cells. After incubating for 6 hours at 37° C. in a 5% CO2 environment, human TGFβ 1 (PeproTech Inc.) was added to a final concentration of 1.6 ng/ml followed by an additional 18 hour incubation under the same conditions. Luciferase STEADY-GLO® reagent (Promega Corporation) was added at 70 μl/well and incubated with shaking for 10 minutes. Luciferase activity was determined by measuring luminescence with an ENVISION® Plate Reader (Perkin-Elmer Inc.). Data were fit with a four-parameter non-linear regression to calculate IC50 values using Prism Software v7.04 (GraphPad Inc.).

Row | Structure (SMILES) | IC50 [1] [nM] | IC50 [2] [nM] | IC50 [3] [nM]
1 | Cc1cccc(-c2nc(CNCc3ccccc3-c3cccc(F)c3)[nH]c2-c2ccc3ncnn3c2)n1 [Compound 37] | 50 to 100 | 10 to 100 | 
2 | Cc1cccc(-c2nc(CNCc3ccccc3-c3ccccc3F)[nH]c2-c2ccc3ncnn3c2)n1 [Compound 38] | 0.1 to 50 | 0.1 to 10 | 
3 | Cc1cccc(-c2nc(CNCc3ccccc3-c3cc(F)cc(F)c3)[nH]c2-c2ccc3ncnn3c2)n1 [Compound 39] | 0.1 to 50 | 10 to 100 | 
4 | Cc1cccc(-c2nc(CNCc3ccccc3-c3ccccn3)[nH]c2-c2ccc3ncnn3c2)n1 [Compound 40] | 100 to 1000 | 10 to 100 | 
5 | Cc1cccc(-c2nc(CNCc3ccccc3-c3cccnc3)[nH]c2-c2ccc3ncnn3c2)n1 [Compound 41] | 50 to 100 | 0.1 to 10 | 
6 | Cc1cccc(-c2nc(CNCc3ccccc3-c3ccncc3)[nH]c2-c2ccc3ncnn3c2)n1 [Compound 42] | 100 to 1000 | 10 to 100 | 
7 | Cc1cccc(-c2nc(CNCc3ccccc3C3CCCCC3)[nH]c2-c2ccc3ncnn3c2)n1 [Compound 43] | 100 to 1000 | 100 to 1000 | 
8 | Cc1cccc(-c2nc(CNCc3ccccc3C3CCCC3)[nH]c2-c2ccc3ncnn3c2)n1 [Compound 44] | 100 to 1000 | 10 to 100 | 
9 | Cc1cccc(-c2nc(CNCc3cccc(C)c3C)[nH]c2-c2ccc3ncnn3c2)n1 [Compound 45] | 50 to 100 | 0.1 to 10 | 
10 | COc1cccc(CNCc2nc(-c3cccc(C)n3)c(-c3ccc4ncnn4c3)[nH]2)c1C [Compound 46] | 50 to 100 | 0.1 to 10 | 
11 | Cc1cccc(-c2nc(CNCc3cccc(Cl)c3C)[nH]c2-c2ccc3ncnn3c2)n1 [Compound 47] | 0.1 to 50 | 0.1 to 10 | 
12 | Cc1cccc(-c2nc(CNCc3cccc(C)c3-c3ccccc3)[nH]c2-c2ccc3ncnn3c2)n1 [Compound 48] | 0.1 to 50 | 10 to 100 | 
13 | Cc1cccc(-c2nc(CNCc3cccc(-c4ccccc4)c3C)[nH]c2-c2ccc3ncnn3c2)n1 [Compound 49] | 100 to 1000 | 10 to 100 | 
14 | Cc1cccc(CNCc2nc(-c3cccc(C)n3)c(-c3ccc4ncnn4c3)[nH]2)c1 [Compound 50] | 100 to 1000 | 10 to 100 | 
15 | Cc1cccc(-c2nc(CNCc3cccc(-c4ccccc4)c3)[nH]c2-c2ccc3ncnn3c2)n1 [Compound 51] | 100 to 1000 | 100 to 1000 | 
16 | Cc1cccc(-c2nc(CNCCc3ccccc3)[nH]c2-c2ccc3ncnn3c2)n1 [Compound 52] | 50 to 100 | 0.1 to 10 | 
17 | Cc1cccc(-c2nc(CNCc3ccccc3Oc3ccccc3)[nH]c2-c2ccc3ncnn3c2)n1 [Compound 53] | 0.1 to 50 | 0.1 to 10 | 
18 | Cc1cccc(-c2nc(CNCc3ccccc3Oc3cccnc3)[nH]c2-c2ccc3ncnn3c2)n1 [Compound 54] | 50 to 100 | 0.1 to 10 | 
19 | Cc1cccc(-c2nc(CNCCc3ccccc3F)[nH]c2-c2ccc3ncnn3c2)n1 [Compound 59] | 0.1 to 50 | 0.1 to 10 | 
20 | Cc1cccc(-c2nc(CNCCc3c(F)cccc3F)[nH]c2-c2ccc3ncnn3c2)n1 [Compound 60] | 0.1 to 50 | 0.1 to 10 | 13.4

Row | Structure (SMILES) | IC50 [1] [nM] | IC50 [2] [nM] | IC50 [3] [nM]
21 | Cc1cccc(-c2nc(CNCCc3cccc(F)c3)[nH]c2-c2ccc3ncnn3c2)n1 [Compound 61] | 0.1 to 50 | 0.1 to 10 | 
22 | Cc1cccc(-c2nc(CNCCc3ccc(F)cc3)[nH]c2-c2ccc3ncnn3c2)n1 [Compound 62] | 100 to 1000 | 0.1 to 10 | 
23 | Cc1cccc(-c2nc(CNCCc3ccc(F)cc3F)[nH]c2-c2ccc3ncnn3c2)n1 [Compound 63] | 100 to 1000 | 0.1 to 10 | 
24 | Cc1cccc(-c2nc(CNCCCc3ccccc3)[nH]c2-c2ccc3ncnn3c2)n1 [Compound 64] | 100 to 1000 | 0.1 to 10 | 
25 | Cc1cccc(-c2nc(CNCCOc3ccccc3)[nH]c2-c2ccc3ncnn3c2)n1 [Compound 65] | 100 to 1000 | 0.1 to 10 | 
26 | Cc1cccc(-c2nc(CNCCNc3ccccc3)[nH]c2-c2ccc3ncnn3c2)n1 [Compound 66] | 100 to 1000 | 0.1 to 10 | 
27 | Cc1cccc(-c2nc(CNCCN(C)c3ccccc3)[nH]c2-c2ccc3ncnn3c2)n1 [Compound 67] | 50 to 100 | 0.1 to 10 | 
28 | Cc1cccc(-c2nc(CNCc3ccccc3-c3ccccc3)[nH]c2-c2ccc3ncccc3n2)n1 [Compound 68] | 0.1 to 50 | 10 to 100 | 
29 | Cc1cccc(-c2nc(CNCc3ccccc3-c3ccccc3)[nH]c2-c2ccnc3ccccc23)n1 [Compound 69] | 100 to 1000 | 100 to 1000 | 
30 | Cc1cccc(-c2nc(CNCc3ccccc3-c3ccccc3)[nH]c2-c2ccc3c(c2)OCO3)n1 [Compound 71] | 0.1 to 50 | 100 to 1000 | 
31 | Cc1cccc(-c2nc(CNCCc3c(F)cccc3F)[nH]c2-c2ccc3c(c2)OCO3)n1 [Compound 81] | 0.1 to 50 | 10 to 100 | 
32 | Cc1cccc(-c2nc(CNCCc3c(F)cccc3F)[nH]c2-c2ccc3nccnc3c2)n1 [Compound 82] | 0.1 to 50 | 0.1 to 10 | 
33 | Cc1cccc(-c2nc(CNCc3ccccc3C)[nH]c2-c2ccc3ncccc3n2)n1 [Compound 83] | 50 to 100 | 0.1 to 10 | 
34 | COc1ccccc1CCNCc1nc(-c2cccc(C)n2)c(-c2ccc3ncccc3n2)[nH]1 [Compound 84] | 100 to 1000 | 0.1 to 10 | 
35 | Cc1cccc(-c2nc(CNCCN(C)c3ccccc3)[nH]c2-c2ccc3ncccc3n2)n1 [Compound 85] | 50 to 100 | 0.1 to 10 | 
36 | Cc1cccc(-c2nc(CNCc3ccccc3C)[nH]c2-c2ccc3nccnc3c2)n1 [Compound 86] | 0.1 to 50 | 0.1 to 10 | 
37 | COc1ccccc1CCNCc1nc(-c2cccc(C)n2)c(-c2ccc3nccnc3c2)[nH]1 [Compound 87] | 0.1 to 50 | 0.1 to 10 | 
38 | Cc1cccc(-c2nc(CNCCN(C)c3ccccc3)[nH]c2-c2ccc3nccnc3c2)n1 [Compound 88] | 0.1 to 50 | 0.1 to 10 | 
39 | Cc1cccc(-c2nc(CNCc3ccccc3)[nH]c2-c2ccc3ncccc3c2)n1 [Compound 90] | 50 to 100 | 0.1 to 10 | 
40 | Cc1cccc(-c2nc(CNCc3ccccc3-c3ccccc3)[nH]c2-c2ccc3ncccc3c2)n1 [Compound 91] | 100 to 1000 | 10 to 100 | 
